From patent publication US20250052985A1, “SYSTEM AND METHOD FOR QUANTITATIVE PHASE IMAGING FOR MULTI-PARAMETRIC SCREENING OF TUMOR THERAPY RESPONSE” (UNIVERSITY OF UTAH RESEARCH FOUNDATION, priority 2023, published 2025)
Values joined by “and” are separate entries in the source; they are usually repeats but may differ in a detail not shown here. Identical values can stand only once. Like-named read-outs stand apart in the source and are kept apart here.

Experiments:
BT-474 cells = assay: cells; settings: for Max Asymptote / Min Asymptote: BT-474, 4-parameter Hill fit of mean SGR vs concentration, one line per replicate; for Hill Slope / log10(EC50): BT-474, Hill fit; for response of growth rate and heterogeneity to treatment: BT-474, FIG. 5E, 22, 23; for growth rate and heterogeneity as concentration increases: BT-474, FIG. 22; for DoR QPI: depth of response; for ToR 20 μM: time of response at 20 μM; for change of population spread (SD) of SGR: with significant decrease in mean response
Summary of the method: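 Breast cancer lines imaged noninvasively by DPC-based quantitative phase imaging across 6-point dose responses in triplicate with solvent controls, for 24 h or 72 h after 3 h equilibration, then CellTiter-Glo ATP viability. Mean specific growth rate fitted to a 4-parameter Hill curve for EC50, with an F-test (p<0.01) against a flat line to determine response.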

HCI-037 PDxO cells = assay: QPI on cells from patient-derived organoid HCI-037 (primary lesion); assay type: cell-based; settings: HCI-037, 48 h imaging, 3-parameter Hill model
Protocol: In some embodiments, the QPI microscope system 110 performs QPI on cells from patient-derived organoids and direct-from-patient samples. For example, the electronic controller 155 analyzes data on cells from a set of 5 organoids representing samples collected from two patients, as illustrated by a workflow 3400 in FIG. 24. The workflow 3400 is an experiment workflow illustrating how assays are analyzed by the QPI microscope system 110. In some embodiments, the QPI microscope system 110 images cells for 48 h, and uses an automatic segmentation algorithm, via the electronic controller 155, to identify individual cells from background, as shown in images 3405 and 3410 of FIG. 24. […] The electronic controller 155 determines the mass of each cell by summing the cell mass over the segmented area. In some embodiments, plots of mass over time reveal single cell growth rates, as shown by graph 3415 of FIG. 24. The graph 3415 is a mass vs. time plot showing DMSO treated cells growing cells at a typical location. Cells outlined in green are shown as green on the plot, other growing cells are shown in purple. The electronic controller 155 determine the specific growth rate (SGR) by fitting a line to time-series mass measurements and normalizing by an initial mass predicted by the fit to account for the effect of cell size on growth rate. The electronic controller 155 fits SGR as a function of dose to a sigmoidal dose response curve using a 3-parameter Hill model to extract dose response measurements, as shown by graph 3420 of FIG. 24. […] In some embodiments, EC50 measured by the QPI microscope system 110 is strongly concordant with gold standard techniques such as CTG over 27 conditions (e.g., 9 compounds, 3 breast cancer cell lines). […] As with cell line data, QPI data on cells from PDxO resolves differences in temporal dynamics of response to therapy, as shown in graph 3425 of FIG. 24. […] In some embodiments, the electronic controller 155 is configured to determine a drug response of each of the plurality of treatment samples from patient derived organoids.
The graphs 3500 includes graph A of the graphs 3500 showing normalized mass vs. time for HCI-037 (primary), HCI-038 (metastatic), and HCI-039 (pleural effusion) showing reduction in growth as concentration increases. Graphs B, C, D, and E of the graphs 3500 show dose response plots showing the differential response between different disease models. Graphs F, G, H, and I of the graphs 3500 show Hellinger distance vs. time plots showing the time of response for the different models treated with various therapies. In some embodiments, HCI-037, HCI-038, and HCI-039, PDxO models are used that are derived from primary lesion, bone metastasis, and pleural effusion, respectively, at different time points from a single patient during the course of treatment and progressive disease. In some embodiments, the electronic controller 155 is configured to determine a difference drug response from patient derived organoids. In some embodiments, the patient derived organoids are tumor organoids.

[1] = 24 h QPI, EC50 in μM per Table 1
[2] = 72 h QPI, EC50 in μM per Table 1
[3] = Homo sapiens, BT-474, 24 h, read-out: log10(EC50), 24 h QPI, BT-474, Hill fit (converted), EC50 in μM per Table 1
[4] = Homo sapiens, BT-474, read-out: EC50, QPI, BT-474 cell line, QPI growth rate
[5] = Homo sapiens, BT-474, 72 h, read-out: log10(EC50), 72 h QPI, BT-474, Hill fit (converted), EC50 in μM per Table 1

## CCC(=C(c1ccc(O)cc1)c1ccc(OCCN(C)C)cc1)c1ccccc1 [4HT, 4-hydroxy-Tamoxifen]
BT-474 cells; 24 h QPI
  Max Asymptote: 0.01232 and 0.00969 and 0.009107
  Min Asymptote: −0.01613 and −0.02375 and −0.02493
  Hill Slope: 2.303 and 3.2307 and 3.3723
BT-474 cells; [1]
  log10(EC50): −1.1593 and −1.2498 and −1.2667
BT-474 cells; 72 h QPI
  Max Asymptote: −0.01224 and −0.01212 and −0.01166
  Min Asymptote: 0.009052 and 0.007511 and 0.008099
  Hill Slope: 3.3746 and 3.7567 and 4.6177
BT-474 cells; [2]
  log10(EC50): −1.2566 and −1.2595 and −1.2511
BT-474 cells
  response of growth rate and heterogeneity to treatment: both reduced growth rate and slightly increased heterogeneity
  growth rate and heterogeneity as concentration increases: decrease in growth rate at approximately constant standard deviation
BT-474 cells; BT-474, FIG. 23 Graph F
  growth rate and heterogeneity over time: first experiencing reduced growth rate, and then a large spike in heterogeneity
BT-474 cells; BT-474 cell line
  DoR QPI: 2.5
  ToR 20 μM: −0.9815
BT-474 cells; read-out: EC50, QPI, BT-474 cell line, QPI growth rate
  EC50: 18 µM
HCI-037 PDxO cells
  dose response (SGR vs dose): strong response

## O=c1[nH]cc(F)c(=O)[nH]1 [5FU, 5-Fluorouracil]
BT-474 cells; 24 h QPI
  Max Asymptote: 0.01107
  Min Asymptote: 0.009021
  Hill Slope: 0.9134
BT-474 cells; 72 h QPI
  Max Asymptote: 0.007708 and 0.007733
  Min Asymptote: 0.008643 and 0.009665
  Hill Slope: 1.5745 and 1.1389
BT-474 cells; BT-474 cell line
  DoR QPI: 0.2
BT-474 cells; [3]
  EC50: 0.0682 µM
BT-474 cells; [4]
  EC50: 0.1 µM

## CC(=O)O[C@@]12CO[C@@H]1C[C@H](O)[C@@]1(C)C(=O)[C@H](O)C3=C(C)[C@@H](OC(=O)[C@H](O)[C@@H](NC(=O)OC(C)(C)C)c4ccccc4)C[C@@](O)([C@@H](OC(=O)c4ccccc4)[C@H]21)C3(C)C [Docetaxel]
BT-474 cells; 24 h QPI
  Max Asymptote: 0.009874 and 0.01051
  Min Asymptote: 0.00518 and 0.00803
  Hill Slope: 0.2745 and 0.5361
BT-474 cells; 72 h QPI
  Max Asymptote: 0.00164 and 0.002702
  Min Asymptote: 0.009387 and 0.007464
  Hill Slope: 3.8183 and 2.5139
BT-474 cells; [2]
  log10(EC50): 2.1891
BT-474 cells; BT-474, 0.016 μM
  growth rate and heterogeneity over time: decreased growth rate and increased heterogeneity
BT-474 cells; BT-474, 0.4 μM
  growth rate and heterogeneity over time: reduced growth rate and increased heterogeneity
BT-474 cells; BT-474, 2 μM
  growth rate and heterogeneity over time: population heterogeneity is increased and growth rate decreases
BT-474 cells; BT-474, 20 μM
  growth rate and heterogeneity over time: decreases, while the heterogeneity for both populations increases
  change of population spread (SD) of SGR: no significant change to the spread
BT-474 cells
  response of growth rate and heterogeneity to treatment: both reduced growth rate and slightly increased heterogeneity
BT-474 cells; BT-474 cell line
  DoR QPI: 0.8
  ToR 20 μM: 10.9
BT-474 cells; [5]
  EC50: 0.00383 µM

## COc1cccc2c1C(=O)c1c(O)c3c(c(O)c1C2=O)C[C@@](O)(C(=O)CO)C[C@@H]3O[C@H]1C[C@H](N)[C@H](O)[C@H](C)O1 [Doxorubicin]
BT-474 cells; 24 h QPI
  Max Asymptote: 0.01297 and 0.01051 and 0.00993
  Min Asymptote: −0.001567 and −0.002506 and −0.002371
  Hill Slope: 1.5047 and 1.6529 and 1.3096
BT-474 cells; [1]
  log10(EC50): −0.2827 and −0.2235
BT-474 cells; 72 h QPI
  Max Asymptote: −0.00359 and −0.003807 and −0.003696
  Min Asymptote: 0.009626 and 0.009175 and 0.009318
  Hill Slope: 3.7081 and 4.795 and 3.6266
BT-474 cells; [2]
  log10(EC50): 0.3361 and 0.3186
BT-474 cells; BT-474 cell line
  DoR QPI: 1.4
  ToR 20 μM: 3.4
BT-474 cells; [3]
  EC50: 1.78 µM
BT-474 cells; [5]
  EC50: 0.475 µM
BT-474 cells; [4]
  EC50: 0.5 µM
BT-474 cells; small cluster of BT-474 cells, 2 μM, 72 h
  cluster mass tracked over time: losing mass
HCI-037 PDxO cells
  dose response (SGR vs dose): strong response

## C[C@]12CC[C@@H]3c4ccc(O)cc4C[C@@H](CCCCCCCCC[S+]([O-])CCCC(F)(F)C(F)(F)F)[C@H]3[C@@H]1CC[C@@H]2O (stereo partly drawn) [Fulvestrant]
BT-474 cells; 24 h QPI
  Max Asymptote: 0.01059
  Min Asymptote: 0.007383
  Hill Slope: 0.5448
BT-474 cells; 72 h QPI
  Max Asymptote: 0.006153 and 0.002199 and 0.003561
  Min Asymptote: 0.009854 and 0.008492 and 0.009456
BT-474 cells; BT-474 cell line
  DoR QPI: 0.6
  ToR 20 μM: 28.9
BT-474 cells; [3]
  EC50: 13.7 µM
BT-474 cells; [4]
  EC50: 11.6 µM
BT-474 cells; Homo sapiens, BT-474, read-out: EC50, SD, BT-474 cell line, EC50 of the standard deviation
  EC50: 8.17 µM

## CC(=O)c1c(C)c2cnc(Nc3ccc(N4CCNCC4)cn3)nc2n(C2CCCC2)c1=O [Palbociclib]
BT-474 cells; 24 h QPI
  Max Asymptote: 0.01082 and 0.008556 and 0.008815
  Min Asymptote: −0.01762 and −0.0277 and −0.01394
  Hill Slope: 2.2846 and 1.7745 and 2.7163
BT-474 cells; [1]
  log10(EC50): −1.2331 and −1.2554
BT-474 cells; 72 h QPI
  Max Asymptote: −0.01228 and −0.0216 and −0.01047
  Min Asymptote: 0.008887 and 0.008838 and 0.006465
BT-474 cells; [2]
  log10(EC50): −1.2071 and −1.2126
BT-474 cells; BT-474 cell line
  DoR QPI: 1.6
  ToR 20 μM: −3.0
BT-474 cells; [3]
  EC50: 13.9 µM
BT-474 cells; [5]
  EC50: 12.3 µM
BT-474 cells; [4]
  EC50: 11.8 µM

## CC[C@]1(O)C[C@@H]2CN(CCc3c([nH]c4ccccc34)[C@@](C(=O)OC)(c3cc4c(cc3OC)N(C)[C@H]3[C@@](O)(C(=O)OC)[C@H](OC(C)=O)[C@]5(CC)C=CCN6CC[C@]43[C@@H]65)C2)C1 [Vinblastine]
BT-474 cells; 24 h QPI
  Max Asymptote: 0.007582
  Min Asymptote: −0.004812
  Hill Slope: 0.4052
BT-474 cells; 72 h QPI
  Max Asymptote: −0.001678 and −0.002248
  Min Asymptote: 0.002895 and 0.003538
  Hill Slope: 2.4178 and 1.3815
BT-474 cells; BT-474, 0.0016 μM
  growth rate and heterogeneity over time: decrease in growth rate at constant heterogeneity that is greater than the control
BT-474 cells; BT-474, 0.016 μM
  growth rate and heterogeneity over time: decreased growth rate and increased heterogeneity
BT-474 cells; BT-474, 0.4 μM
  growth rate and heterogeneity over time: reduced growth rate at the same level of heterogeneity as the control
BT-474 cells; BT-474, 20 μM
  average growth rate over time: slowly decreases over 12-60 h of treatment
  growth rate and heterogeneity over time: decreases, while the heterogeneity for both populations increases
  change of population spread (SD) of SGR: no significant change to the spread
BT-474 cells
  response of growth rate and heterogeneity to treatment: both reduced growth rate and slightly increased heterogeneity
  growth rate and heterogeneity as concentration increases: decrease in growth rate as concentration increases while heterogeneity remains constant
BT-474 cells; BT-474 cell line
  DoR QPI: 2.8
  ToR 20 μM: 4.9
BT-474 cells; [3]
  EC50: 48.8 µM
BT-474 cells; [4]
  EC50: 14.9 µM
HCI-037 PDxO cells
  dose response (SGR vs dose): lesser response
